pIC50: −log10 of the molar value.
Key:
[1] = biological target: T1, Type-2 angiotensin II receptor (Homo sapiens, UniProt P50052); format: cell-based; conditions: cho-k1; note: in other assays of this panel Not Active means under 50% inhibition at 10 µM
T1 sequence (P50052 whole entry): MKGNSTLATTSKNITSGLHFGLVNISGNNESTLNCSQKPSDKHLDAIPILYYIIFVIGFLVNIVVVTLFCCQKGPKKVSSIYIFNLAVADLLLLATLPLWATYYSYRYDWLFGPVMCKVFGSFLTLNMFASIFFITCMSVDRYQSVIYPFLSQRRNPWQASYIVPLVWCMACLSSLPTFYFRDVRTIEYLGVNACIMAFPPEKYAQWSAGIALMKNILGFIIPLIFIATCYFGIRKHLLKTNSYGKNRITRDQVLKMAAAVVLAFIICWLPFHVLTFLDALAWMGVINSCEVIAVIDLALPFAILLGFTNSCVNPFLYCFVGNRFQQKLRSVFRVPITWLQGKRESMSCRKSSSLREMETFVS

Glycine receptor = Glycine receptor (Rattus norvegicus, UniProt P22771+P24524+P07727+P20781); format: cell membranes, Wistar, Spinal cord, Membrane; note: in other assays of this panel Not Active means under 50% inhibition at 10 µM
[2] = DRUGMATRIX: Phosphodiesterase PDE4 enzyme inhibition (substrate: [3H]cAMP + cAMP); conditions: u-937, Not Active = under 50% inhibition at 10 µM
Cathepsin G = biological target: T2, Cathepsin G (Homo sapiens, UniProt P08311); format: tissue-based; conditions: neutrophil;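 note: inhibition of Cathepsin G enzyme activity, tested on an AMC-conjugated peptide substrate; in other assays of this panel Not Active means under 50% inhibition at 10 µM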
T2 sequence (P08311 whole entry): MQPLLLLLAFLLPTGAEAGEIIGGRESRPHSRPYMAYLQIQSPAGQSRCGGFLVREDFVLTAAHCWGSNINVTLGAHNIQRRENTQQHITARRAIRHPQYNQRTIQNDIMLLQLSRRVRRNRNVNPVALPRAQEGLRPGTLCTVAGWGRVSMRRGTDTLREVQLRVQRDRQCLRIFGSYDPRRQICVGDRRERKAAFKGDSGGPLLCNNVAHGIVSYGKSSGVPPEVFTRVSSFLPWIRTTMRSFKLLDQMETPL

[3] = biological target: Matrix metalloproteinase-9 (Homo sapiens, UniProt P14780); assay: biochemical; format: cell-based;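 note: inhibition of isolated MMP-9 enzyme activity toward a synthetic peptide substrate, from the DrugMatrix protease screening panel; in other assays of this panel Not Active means under 50% inhibition at 10 µM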
[4] = biological target: Protein phosphatase 3 catalytic subunit alpha (Homo sapiens, UniProt Q08209); set-up: species or system Escherichia coli
Cytochrome P450 3A4 = Cytochrome P450 3A4 (Homo sapiens, UniProt P08684); conditions: bti-tn-5b1-4; note: in other assays of this panel Not Active means under 50% inhibition at 10 µM
[5] = biological target: Voltage-gated inwardly rectifying potassium channel KCNH2 (Homo sapiens, UniProt Q12809); conditions: hek293; note: in other assays of this panel Not Active means under 50% inhibition at 10 µM
Chain of Voltage-gated inwardly rectifying potassium channel KCNH2 (Q12809 whole entry): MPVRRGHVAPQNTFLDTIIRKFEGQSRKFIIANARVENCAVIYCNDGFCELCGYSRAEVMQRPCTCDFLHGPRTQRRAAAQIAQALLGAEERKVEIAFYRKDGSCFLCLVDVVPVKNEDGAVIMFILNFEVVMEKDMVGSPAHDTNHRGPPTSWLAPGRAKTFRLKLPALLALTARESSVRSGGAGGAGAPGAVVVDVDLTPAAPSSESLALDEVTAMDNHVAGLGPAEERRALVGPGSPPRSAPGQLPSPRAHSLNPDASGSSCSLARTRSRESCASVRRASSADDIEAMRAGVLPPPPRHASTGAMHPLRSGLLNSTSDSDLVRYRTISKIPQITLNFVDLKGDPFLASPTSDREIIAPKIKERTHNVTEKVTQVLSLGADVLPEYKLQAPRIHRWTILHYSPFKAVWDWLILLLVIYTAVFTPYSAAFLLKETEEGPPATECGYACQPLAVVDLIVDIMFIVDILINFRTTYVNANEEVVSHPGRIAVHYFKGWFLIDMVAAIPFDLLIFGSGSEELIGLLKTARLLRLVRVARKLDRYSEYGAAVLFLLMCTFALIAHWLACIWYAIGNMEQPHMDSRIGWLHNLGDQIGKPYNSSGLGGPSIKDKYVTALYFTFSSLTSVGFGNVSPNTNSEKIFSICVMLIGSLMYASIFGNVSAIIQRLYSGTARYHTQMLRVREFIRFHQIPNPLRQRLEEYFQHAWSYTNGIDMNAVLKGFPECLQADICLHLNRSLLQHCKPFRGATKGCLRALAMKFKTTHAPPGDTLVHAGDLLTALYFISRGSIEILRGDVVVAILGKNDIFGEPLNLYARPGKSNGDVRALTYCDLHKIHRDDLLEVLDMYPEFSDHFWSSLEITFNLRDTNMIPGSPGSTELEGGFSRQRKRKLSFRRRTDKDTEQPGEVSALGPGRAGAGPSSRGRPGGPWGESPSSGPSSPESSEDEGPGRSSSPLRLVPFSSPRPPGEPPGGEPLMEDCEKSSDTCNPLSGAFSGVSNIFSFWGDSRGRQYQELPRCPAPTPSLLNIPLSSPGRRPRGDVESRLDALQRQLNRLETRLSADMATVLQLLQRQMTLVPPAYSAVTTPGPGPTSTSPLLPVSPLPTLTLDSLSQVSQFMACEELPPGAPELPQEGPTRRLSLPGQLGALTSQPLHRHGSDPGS

Chain of Cytochrome P450 3A4 (P08684 whole entry): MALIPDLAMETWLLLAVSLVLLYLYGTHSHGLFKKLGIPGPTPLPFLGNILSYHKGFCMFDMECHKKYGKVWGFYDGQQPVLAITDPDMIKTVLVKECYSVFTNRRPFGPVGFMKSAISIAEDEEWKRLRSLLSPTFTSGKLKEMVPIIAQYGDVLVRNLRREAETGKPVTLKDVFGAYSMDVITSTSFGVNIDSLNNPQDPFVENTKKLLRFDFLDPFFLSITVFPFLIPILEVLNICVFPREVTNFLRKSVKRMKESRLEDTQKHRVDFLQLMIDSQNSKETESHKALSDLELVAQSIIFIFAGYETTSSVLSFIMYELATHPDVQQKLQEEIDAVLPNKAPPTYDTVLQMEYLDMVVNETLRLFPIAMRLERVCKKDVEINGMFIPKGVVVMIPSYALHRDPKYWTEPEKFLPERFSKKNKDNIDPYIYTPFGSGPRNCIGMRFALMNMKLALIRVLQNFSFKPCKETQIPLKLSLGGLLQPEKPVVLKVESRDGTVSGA
Chain of Matrix metalloproteinase-9 (P14780 whole entry): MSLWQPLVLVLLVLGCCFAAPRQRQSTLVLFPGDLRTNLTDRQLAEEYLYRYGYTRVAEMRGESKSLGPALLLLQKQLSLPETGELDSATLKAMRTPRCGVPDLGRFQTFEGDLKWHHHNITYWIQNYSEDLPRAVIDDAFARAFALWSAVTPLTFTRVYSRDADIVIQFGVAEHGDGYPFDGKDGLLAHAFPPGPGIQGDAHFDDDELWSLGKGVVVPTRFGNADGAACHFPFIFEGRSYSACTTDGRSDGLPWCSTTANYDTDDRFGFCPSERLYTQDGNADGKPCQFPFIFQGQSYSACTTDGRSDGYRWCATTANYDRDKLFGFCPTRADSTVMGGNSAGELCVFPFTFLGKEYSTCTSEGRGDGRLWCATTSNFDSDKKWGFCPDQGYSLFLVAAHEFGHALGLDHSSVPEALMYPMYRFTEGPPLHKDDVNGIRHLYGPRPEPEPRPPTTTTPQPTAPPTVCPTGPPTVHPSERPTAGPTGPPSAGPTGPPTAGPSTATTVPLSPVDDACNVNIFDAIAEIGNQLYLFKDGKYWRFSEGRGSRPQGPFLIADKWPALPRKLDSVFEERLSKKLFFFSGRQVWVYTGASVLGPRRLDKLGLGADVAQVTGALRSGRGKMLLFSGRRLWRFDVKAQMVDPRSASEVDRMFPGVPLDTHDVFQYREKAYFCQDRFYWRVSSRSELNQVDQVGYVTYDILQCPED

Structure (SMILES)	IC50 [1]	IC50 (Glycine receptor)	IC50 [2]	Ki [2]	IC50 (Cathepsin G)	IC50 [3]	IC50 [4]	IC50 (Cytochrome P450 3A4)	Ki (Cytochrome P450 3A4)	IC50 [5]	Ki [5]	Ki [4]	Ki [1]	Ki (Glycine receptor)	Ki (Cathepsin G)	Ki [3]	pIC50 ([3]; read-out: IC50)	pIC50 ([2]; read-out: IC50)
Cc1ccc2cc3c(ccc4ccccc43)c3c2c1CC3 [3-METHYLCHOLANTHRENE]	Not Active	Not Active	Not Active	Not Active	Not Active	Not Active	Not Active	Not Active	Not Active	Not Active	Not Active							
CC[C@@]1(O)C[C@H](O[C@H]2C[C@H](N(C)C)[C@H](O[C@H]3C[C@H](O)[C@H](O[C@H]4CCC(=O)[C@H](C)O4)[C@H](C)O3)[C@H](C)O2)c2c(cc3c(c2O)C(=O)c2c(O)cccc2C3=O)[C@H]1C(=O)OC [ACLARUBICIN]	Not Active	Not Active	Not Active	Not Active	Not Active	Not Active	Not Active	Not Active	Not Active	Not Active	Not Active							
Cc1c(C)c2c(c(C)c1O)CC[C@@](C)(CCC[C@H](C)CCC[C@H](C)CCCC(C)C)O2 [ALPHA-TOCOPHEROL]	Not Active	Not Active	Not Active	Not Active	Not Active	Not Active	Not Active	Not Active	Not Active	Not Active	Not Active							
NCCCCCC(=O)O [AMINOCAPROIC ACID]	Not Active	Not Active	Not Active	Not Active	Not Active	Not Active	Not Active	Not Active	Not Active	Not Active	Not Active							
CCC1(c2ccc(N)cc2)CCC(=O)NC1=O (configuration not stated) [AMINOGLUTETHIMIDE]	Not Active	Not Active	Not Active	Not Active	Not Active	Not Active		Not Active	Not Active	Not Active	Not Active	Not Active						
Cc1ccc(/N=C/N(C)/C=N/c2ccc(C)cc2C)c(C)c1 [AMITRAZ]	Not Active	Not Active	Not Active	Not Active	Not Active	Not Active	Not Active	Not Active	Not Active	Not Active	Not Active							
COc1ccc(C[C@H]2NC[C@H](O)[C@H]2OC(C)=O)cc1 [ANISOMYCIN]	Not Active	Not Active	Not Active	Not Active	Not Active	Not Active	Not Active	Not Active	Not Active	Not Active	Not Active	Not Active	Not Active	Not Active	Not Active	Not Active		
Nc1ncn([C@@H]2O[C@H](CO)[C@@H](O)[C@H]2O)c(=O)n1 [AZACITIDINE]	Not Active	Not Active	Not Active	Not Active	Not Active	Not Active	Not Active	Not Active	Not Active	Not Active	Not Active							
CN(C)C(=O)Oc1cc(OC(=O)N(C)C)cc(C(O)CNC(C)(C)C)c1 (configuration not stated) [BAMBUTEROL]	Not Active	Not Active	Not Active	Not Active	Not Active	Not Active	Not Active	Not Active	Not Active	Not Active	Not Active							
c1ccc2c(c1)c1cccc3ccc4cccc2c4c31 [BENZO[E]PYRENE]	Not Active	Not Active	Not Active	Not Active	Not Active	Not Active	Not Active	Not Active	Not Active	Not Active	Not Active							
CNCCc1ccccn1 [BETAHISTINE]	Not Active	Not Active	Not Active	Not Active	Not Active	Not Active	Not Active	Not Active	Not Active	Not Active	Not Active							
CC(C)C(Br)C(=O)NC(N)=O (configuration not stated) [BROMISOVALUM]	Not Active	Not Active	Not Active	Not Active	Not Active	Not Active	Not Active	Not Active	Not Active	Not Active	Not Active							
CCCC1O[C@@H]2C[C@H]3[C@@H]4CCC5=CC(=O)C=C[C@]5(C)[C@H]4[C@@H](O)C[C@]3(C)[C@]2(C(=O)CO)O1 (some centres not stated) [BUDESONIDE]	Not Active	Not Active	Not Active	Not Active	Not Active		Not Active	Not Active	Not Active	Not Active	Not Active						5.70	
CN(Cc1ccc(C(C)(C)C)cc1)Cc1cccc2ccccc12 [BUTENAFINE]	Not Active	Not Active	Not Active	Not Active	Not Active	Not Active	Not Active	Not Active	Not Active	Not Active	Not Active							
C[C@H](CS)C(=O)N1CCC[C@H]1C(=O)O [CAPTOPRIL]	Not Active	Not Active	Not Active	Not Active	Not Active	Not Active	Not Active	Not Active	Not Active	Not Active	Not Active							
Cc1ccc(-c2cc(C(F)(F)F)nn2-c2ccc(S(N)(=O)=O)cc2)cc1 [CELECOXIB]	Not Active	Not Active			Not Active	Not Active	Not Active	Not Active	Not Active	Not Active	Not Active							5.03
O=C(O)CCCc1ccc(N(CCCl)CCCl)cc1 [CHLORAMBUCIL]	Not Active	Not Active	Not Active	Not Active	Not Active	Not Active	Not Active	Not Active	Not Active	Not Active	Not Active							
C[C@H](CCC(=O)O)[C@H]1CC[C@H]2[C@@H]3[C@H](O)C[C@@H]4C[C@H](O)CC[C@]4(C)[C@H]3C[C@H](O)[C@]12C [CHOLIC ACID]	Not Active	Not Active	Not Active	Not Active	Not Active	Not Active	Not Active	Not Active	Not Active	Not Active	Not Active							
Cc1cc(C2CCCCC2)n(O)c(=O)c1 [CICLOPIROX]	Not Active	Not Active	Not Active	Not Active	Not Active	Not Active	Not Active	Not Active	Not Active	Not Active	Not Active							
CC1=C2C(=CO[C@H](C)[C@H]2C)C(O)=C(C(=O)O)C1=O [CITRININ]	Not Active	Not Active	Not Active	Not Active	Not Active	Not Active	Not Active	Not Active	Not Active	Not Active	Not Active							
CC(C)(C)NCC(O)c1cc(Cl)c(N)c(Cl)c1 (configuration not stated) [CLENBUTEROL]	Not Active	Not Active	Not Active	Not Active	Not Active	Not Active	Not Active	Not Active	Not Active	Not Active	Not Active							
Clc1cccc(Cl)c1NC1=NCCN1 [CLONIDINE]	Not Active	Not Active	Not Active	Not Active	Not Active	Not Active	Not Active	Not Active	Not Active	Not Active	Not Active							
Cc1onc(-c2ccccc2Cl)c1C(=O)N[C@@H]1C(=O)N2[C@@H]1SC(C)(C)[C@@H]2C(=O)O [CLOXACILLIN]	Not Active	Not Active	Not Active	Not Active	Not Active	Not Active	Not Active	Not Active	Not Active	Not Active	Not Active							

— ChEMBL document CHEMBL1909046, “DrugMatrix in vitro pharmacology data”
